Data on 14 compounds can be found in patent publication US20260365637A1, “DUAL EZH2-HSP90 INHIBITORS” (TAIPEI MEDICAL UNIVERSITY, priority 2023, published 2026).

Structures are written as SMILES.

One data set concerns the target HSP90a (Homo sapiens, UniProt P07900). Put plainly: In vitro HSP90 inhibition assay (Reaction Biology Corporation). It is filed as biochemical. The method, then:
The HSP90 inhibitory activity of the synthesized adduct was assessed by Reaction Biology Corporation, Malvern, PA (http://www.reactionbiology.com).
An in-vitro experiment was performed to assess the inhibitory effect of the synthesized adducts on the heat shock protein 90 (HSP90).

In a further data set the target is EZH2 (Core Histone) (Homo sapiens, UniProt Q15910). Put plainly: EZH2 inhibition assay (Reaction Biology Corporation). It is filed as biochemical. The method, then:
The EZH2 inhibitory ability of the synthesized adduct was assessed by Reaction Biology Corporation, Malvern, PA (http://www.reactionbiology.com).

The next data set deals with Pt3R cells. Put plainly: Cell viability / cytotoxicity of TMZ-resistant Pt3R cells (CCK8). The format is cell-based, human. The conditions noted are these: for IC50: read-out: Cell growth inhibitory effect IC50.
The test system of another data set is GBM cell lines. Description: Preliminary screening of cell growth inhibition in GBM cell lines. It is filed as cell-based. The conditions noted are these: for cytotoxicity / cell growth inhibition against GBM cell lines: preliminary screening. The source says: As such, Hsp90 is an ATP-dependent molecular chaperone that regulates protein conformation, stability, and degradation. Several HSP90 inhibitors have been evaluated for their anti-GBM efficacy at a preliminary level. […] Reduction in the mRNA and protein expression of EGFR, PDGFRA, CDK4, and NF1 in heterogeneous GBM cells was also evidenced in treatment with AUY922.

Another data set relates to GBM cells. The conditions noted are these: literature, cited from earlier work.
The test system of the next data set is brafv600e mutant GBM. The conditions noted are these: literature; cited from earlier work.

EZH2 (Core Histone), sequence (Q15910 whole entry): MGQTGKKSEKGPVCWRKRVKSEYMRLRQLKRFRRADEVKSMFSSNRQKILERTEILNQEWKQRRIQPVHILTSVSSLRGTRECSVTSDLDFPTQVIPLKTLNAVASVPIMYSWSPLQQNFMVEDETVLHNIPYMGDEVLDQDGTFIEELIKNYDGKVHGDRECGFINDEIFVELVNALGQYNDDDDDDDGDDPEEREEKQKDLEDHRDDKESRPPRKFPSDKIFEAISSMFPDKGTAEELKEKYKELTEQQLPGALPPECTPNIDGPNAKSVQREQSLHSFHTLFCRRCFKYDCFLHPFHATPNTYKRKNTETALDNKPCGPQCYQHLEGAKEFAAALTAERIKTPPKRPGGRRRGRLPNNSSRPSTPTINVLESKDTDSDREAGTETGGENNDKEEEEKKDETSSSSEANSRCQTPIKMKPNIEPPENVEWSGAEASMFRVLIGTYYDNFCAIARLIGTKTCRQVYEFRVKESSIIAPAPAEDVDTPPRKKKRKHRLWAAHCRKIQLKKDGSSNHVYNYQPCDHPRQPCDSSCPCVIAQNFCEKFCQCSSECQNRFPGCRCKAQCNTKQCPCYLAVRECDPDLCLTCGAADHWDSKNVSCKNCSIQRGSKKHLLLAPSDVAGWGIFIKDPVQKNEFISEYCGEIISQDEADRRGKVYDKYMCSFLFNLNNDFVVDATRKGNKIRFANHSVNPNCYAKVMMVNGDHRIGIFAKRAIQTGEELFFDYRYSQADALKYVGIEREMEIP
EZH2 (Core Histone), sequence (O75530 whole entry partner): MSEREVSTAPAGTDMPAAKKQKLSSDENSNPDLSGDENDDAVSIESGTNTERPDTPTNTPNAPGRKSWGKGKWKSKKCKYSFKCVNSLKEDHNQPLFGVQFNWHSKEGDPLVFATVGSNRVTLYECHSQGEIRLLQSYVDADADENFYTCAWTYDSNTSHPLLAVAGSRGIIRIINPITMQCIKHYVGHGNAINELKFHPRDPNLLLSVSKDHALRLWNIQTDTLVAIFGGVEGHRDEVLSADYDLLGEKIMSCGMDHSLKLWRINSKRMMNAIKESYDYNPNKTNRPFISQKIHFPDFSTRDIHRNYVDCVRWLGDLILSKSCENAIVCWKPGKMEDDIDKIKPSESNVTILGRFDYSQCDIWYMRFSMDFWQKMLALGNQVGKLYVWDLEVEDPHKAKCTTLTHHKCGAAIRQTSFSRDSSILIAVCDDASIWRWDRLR
EZH2 (Core Histone), sequence (Q15022 whole entry partner): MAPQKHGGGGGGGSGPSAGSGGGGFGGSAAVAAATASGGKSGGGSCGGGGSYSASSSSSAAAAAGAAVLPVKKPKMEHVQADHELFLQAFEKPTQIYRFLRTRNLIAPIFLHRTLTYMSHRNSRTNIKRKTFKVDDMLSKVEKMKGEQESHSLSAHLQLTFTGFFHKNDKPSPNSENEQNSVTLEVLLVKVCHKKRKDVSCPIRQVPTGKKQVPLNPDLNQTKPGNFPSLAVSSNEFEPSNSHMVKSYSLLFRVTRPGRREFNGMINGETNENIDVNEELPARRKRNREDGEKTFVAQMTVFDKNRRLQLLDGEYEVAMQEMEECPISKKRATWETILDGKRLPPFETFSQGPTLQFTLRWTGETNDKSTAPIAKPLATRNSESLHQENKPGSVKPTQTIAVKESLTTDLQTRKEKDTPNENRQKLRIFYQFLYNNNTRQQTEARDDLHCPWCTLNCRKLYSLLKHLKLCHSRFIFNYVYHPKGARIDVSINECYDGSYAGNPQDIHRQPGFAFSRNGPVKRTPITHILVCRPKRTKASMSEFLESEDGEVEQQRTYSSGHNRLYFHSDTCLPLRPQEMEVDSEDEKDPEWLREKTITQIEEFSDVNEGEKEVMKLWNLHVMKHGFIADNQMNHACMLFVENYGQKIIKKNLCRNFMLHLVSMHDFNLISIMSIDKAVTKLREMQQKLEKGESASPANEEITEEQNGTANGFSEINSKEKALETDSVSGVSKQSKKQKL
EZH2 (Core Histone), sequence (Q09028 whole entry partner): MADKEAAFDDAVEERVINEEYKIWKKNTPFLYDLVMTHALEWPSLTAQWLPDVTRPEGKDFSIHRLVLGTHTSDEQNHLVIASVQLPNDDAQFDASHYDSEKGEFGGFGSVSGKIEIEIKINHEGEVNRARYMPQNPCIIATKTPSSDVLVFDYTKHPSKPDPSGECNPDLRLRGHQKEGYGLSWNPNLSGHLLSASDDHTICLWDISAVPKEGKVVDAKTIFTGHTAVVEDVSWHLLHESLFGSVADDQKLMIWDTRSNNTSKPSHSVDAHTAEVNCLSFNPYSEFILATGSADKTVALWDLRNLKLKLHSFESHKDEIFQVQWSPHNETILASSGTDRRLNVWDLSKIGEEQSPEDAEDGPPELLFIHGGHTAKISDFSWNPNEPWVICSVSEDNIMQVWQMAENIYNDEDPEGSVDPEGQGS
EZH2 (Core Histone), sequence (Q6ZN18 whole entry partner): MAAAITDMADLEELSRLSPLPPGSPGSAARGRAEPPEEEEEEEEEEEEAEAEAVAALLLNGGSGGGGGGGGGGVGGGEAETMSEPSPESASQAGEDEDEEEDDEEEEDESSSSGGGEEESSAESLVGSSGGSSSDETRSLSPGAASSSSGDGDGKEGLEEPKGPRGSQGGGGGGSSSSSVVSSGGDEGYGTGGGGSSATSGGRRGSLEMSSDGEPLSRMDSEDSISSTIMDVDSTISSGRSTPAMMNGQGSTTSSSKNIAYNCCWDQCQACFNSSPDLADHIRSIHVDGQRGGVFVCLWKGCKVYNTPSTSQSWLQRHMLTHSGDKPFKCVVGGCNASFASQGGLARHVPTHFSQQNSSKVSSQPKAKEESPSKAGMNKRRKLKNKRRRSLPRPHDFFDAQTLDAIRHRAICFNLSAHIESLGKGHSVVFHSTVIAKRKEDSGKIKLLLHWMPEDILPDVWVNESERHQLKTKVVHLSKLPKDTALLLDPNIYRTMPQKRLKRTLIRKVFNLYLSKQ

In the case of `CCN(c1cc(-c2cccc(NC(=O)c3cc(C(C)C)c(O)cc3O)c2)cc(C(=O)NCc2c(C)cc(C)[nH]c2=O)c1C)C1CCOCC1` [Compound 2, 3′-(2,4-dihydroxy-5-isopropylbenzamido)-N-((4,6-dimethyl-2-oxo-1,2-dihydropyridin-3-yl)methyl)-5-(ethyl(tetrahydro-2H-pyran-4-yl)amino)-4-methyl-[1,1′-biphenyl]-3-carboxamide], the “HSP90 inhibitory potential in words” value at HSP90a is recorded as “devoid of HSP90 inhibitory potential”. At EZH2 (Core Histone), this compound came in with a half-inhibitory concentration (IC50) of 2.06 nM. Moreover, the “potency in inhibiting EZH2 relative to compound 1” value at EZH2 (Core Histone) (compound 2 (3′) vs counterpart 1 (4′)) worked out at 3 fold. Also, in the data set on Pt3R cells, the “cell growth / viability inhibitory effect in words” value is recorded as “unable to exert cell growth inhibitory effects” and the IC50 was > 79800 nM.

Turning to `CC(C)c1cc(-c2n[nH]c(=O)n2-c2ccc3c(ccn3C)c2)c(O)cc1O` [STA9090], the “cytotoxicity / cell growth inhibition against GBM cell lines” value in the data set on GBM cell lines is “moderate cytotoxicity”. Further, the “cell growth inhibitory effects relative to the cocktail” value with GBM cell lines (single agent vs combination with Tazemetostat) is “several fold less than that observed with the cocktail”.

On to `CCN(c1cc(-c2ccc(N(Cc3ccccc3)C(=O)c3cc(C(C)C)c(O)cc3O)cc2)cc(C(=O)NCc2c(C)cc(C)[nH]c2=O)c1C)C1CCOCC1` [Compound 6, 4′-(N-benzyl-2,4-dihydroxy-5-isopropylbenzamido)-N-((4,6-dimethyl-2-oxo-1,2-dihydropyridin-3-yl)methyl)-5-(ethyl(tetrahydro-2H-pyran-4-yl)amino)-4-methyl-[1,1′-biphenyl]-3-carboxamide], for which the “HSP90 inhibitory potential in words” value on HSP90a is on record as “could not replicate the activity-conferring trends”. Besides, the IC50 is 11.7 nM against EZH2 (Core Histone) and > 79800 nM in the data set on Pt3R cells.

Consider `CCCN(C(=O)c1cc(C(C)C)c(O)cc1O)c1cccc(-c2cc(C(=O)NCc3c(C)cc(C)[nH]c3=O)c(C)c(N(CC)C3CCOCC3)c2)c1` [Compound 9, 3′-(2,4-dihydroxy-5-isopropyl-N-propylbenzamido)-N-((4,6-dimethyl-2-oxo-1,2-dihydropyridin-3-yl)methyl)-5-(ethyl(tetrahydro-2H-pyran-4-yl)amino)-4-methyl-[1,1′-biphenyl]-3-carboxamide], for which, at HSP90a, the “HSP90 inhibitory potential in words” value is on record as “could not replicate the activity-conferring trends” and the midpoint of inhibition, the IC50, lay at 9330 nM. Moreover, the midpoint of inhibition at EZH2 (Core Histone), the IC50, lay at 40.1 nM. In the data set on Pt3R cells, the “cell growth / viability inhibitory effect in words” value is recorded as “unable to exert cell growth inhibitory effects” and the 50% inhibitory concentration (IC50) is > 79800 nM.

With `CCN(c1cc(-c2cccc(N(Cc3ccccc3)C(=O)c3cc(C(C)C)c(O)cc3O)c2)cc(C(=O)NCc2c(C)cc(C)[nH]c2=O)c1C)C1CCOCC1` [Compound 10, 3′-(N-benzyl-2,4-dihydroxy-5-isopropylbenzamido)-N-((4,6-dimethyl-2-oxo-1,2-dihydropyridin-3-yl)methyl)-5-(ethyl(tetrahydro-2H-pyran-4-yl)amino)-4-methyl-[1,1′-biphenyl]-3-carboxamide], at HSP90a, the “HSP90 inhibitory potential in words” value is “could not replicate the activity-conferring trends” and the concentration for half-maximal inhibition (IC50) amounted to 2840 nM. In addition, the midpoint of inhibition at EZH2 (Core Histone), the IC50, lay at 641 nM. For the same compound, in the data set on Pt3R cells, the “cell growth / viability inhibitory effect in words” value was “unable to exert cell growth inhibitory effects” and the IC50 is > 79800 nM.

Regarding `CCCN(C(=O)c1cc(C(C)C)c(O)cc1O)c1ccc(-c2cc(C(=O)NCc3c(C)cc(C)[nH]c3=O)c(C)c(N(CC)C3CCOCC3)c2)cc1` [Compound 5, 4′-(2,4-dihydroxy-5-isopropyl-N-propylbenzamido)-N-((4,6-dimethyl-2-oxo-1,2-dihydropyridin-3-yl)methyl)-5-(ethyl(tetrahydro-2H-pyran-4-yl)amino)-4-methyl-[1,1′-biphenyl]-3-carboxamide], the “HSP90 inhibitory potential in words” value on HSP90a is on record as “could not replicate the activity-conferring trends”. Further, the values for the IC50 on EZH2 (Core Histone) and with Pt3R cells were 21.8 nM and > 79800 nM, respectively.

Regarding `CCNC(=O)c1noc(-c2cc(C(C)C)c(O)cc2O)c1-c1ccc(CN2CCOCC2)cc1` [AUY922], in the data set on GBM cells (heterogeneous GBM cells), the “mRNA and protein expression of EGFR, PDGFRA, CDK4, and NF1” value is reported as “Reduction”. Moreover, in the data set on GBM cells, the “anti-GBM effect in GBM cells” value is “led to GBM cell death via apoptosis and autophagy”.

`CCN(c1cc(-c2ccc(CN3CCOCC3)cc2)cc(C(=O)NCc2c(C)cc(C)[nH]c2=O)c1C)C1CCOCC1` [Tazemetostat]: the anti-GBM efficacy entry in the data set on GBM cell lines is listed as “did not exhibit anti-GBM efficacy”. Besides, the entries for the “cytotoxicity / cell growth inhibition against GBM cell lines” value in the data set with GBM cell lines (listed as tazemetosat) and in the data set with GBM cell lines (listed as tazemetostat (I)) were “cytotoxicity-devoid trends” and “could not exert cell growth inhibitory potential against the GBM cell lines”, respectively. Besides, the “cell growth / viability inhibitory effect in words” value in the data set on Pt3R cells is on record as “unable to exert cell growth inhibitory effects”.

`CCN(C(=O)c1cc(C(C)C)c(O)cc1O)c1ccc(-c2cc(C(=O)NCc3c(C)cc(C)[nH]c3=O)c(C)c(N(CC)C3CCOCC3)c2)cc1` [Compound 4, N-((4,6-dimethyl-2-oxo-1,2-dihydropyridin-3-yl)methyl)-5-(ethyl(tetrahydro-2H-pyran-4-yl)amino)-4′-(N-ethyl-2,4-dihydroxy-5-isopropylbenzamido)-4-methyl-[1,1′-biphenyl]-3-carboxamide]: on HSP90a, the “HSP90 inhibitory potential in words” value was “conferred HSP90 inhibitory potential” and the IC50 worked out at 823 nM. The same compound gave an IC50 on EZH2 (Core Histone) of 7.35 nM.

Consider `CCN(C(=O)c1cc(C(C)C)c(O)cc1O)c1cccc(-c2cc(C(=O)NCc3c(C)cc(C)[nH]c3=O)c(C)c(N(CC)C3CCOCC3)c2)c1` [Compound 8, N-((4,6-dimethyl-2-oxo-1,2-dihydropyridin-3-yl)methyl)-5-(ethyl(tetrahydro-2H-pyran-4-yl)amino)-3′-(N-ethyl-2,4-dihydroxy-5-isopropylbenzamido)-4-methyl-[1,1′-biphenyl]-3-carboxamide], for which, on HSP90a, the “HSP90 inhibitory potential in words” value is recorded as “conferred HSP90 inhibitory potential” and 63.6 nM corresponded to half-maximal inhibition (IC50). Besides, on EZH2 (Core Histone), the IC50 worked out at 36.6 nM. Besides, in the data set with Pt3R cells, the “cell growth / viability inhibitory effect in words” value is given as “the only ones to exert cell viability inhibitory potential” and the IC50 stood at 10800 nM.

Consider `O=C1C=C(Nc2ccc3cnccc3c2)c2ccccc2C1=O` [YZ129], for which, in the data set with GBM cells, the “anti-GBM effect in GBM cells” value is “promoted apoptosis and exerted GBM cell cycle arrest at the G2/M phase, inhibiting tumour cell proliferation and migration”.

In the case of `CCN(c1cc(-c2ccc(N(C)C(=O)c3cc(C(C)C)c(O)cc3O)cc2)cc(C(=O)NCc2c(C)cc(C)[nH]c2=O)c1C)C1CCOCC1` [Compound 3, 4′-(2,4-dihydroxy-5-isopropyl-N-methylbenzamido)-N-((4,6-dimethyl-2-oxo-1,2-dihydropyridin-3-yl)methyl)-5-(ethyl(tetrahydro-2H-pyran-4-yl)amino)-4-methyl-[1,1′-biphenyl]-3-carboxamide], the “HSP90 inhibitory potential in words” value on HSP90a is listed as “conferred HSP90 inhibitory potential”. In addition, the IC50 against HSP90a was determined as 343 nM; against EZH2 (Core Histone), 7.21 nM; with Pt3R cells, 27400 nM. Also, the “cell growth / viability inhibitory effect in words” value in the data set on Pt3R cells is recorded as “the only ones to exert cell viability inhibitory potential”.

As for `COc1c(C)cnc(Cn2cnc3c(Cl)nc(N)nc32)c1C` [BIIB021], the “resistance to molecular targeted therapy” value in the data set with brafv600e mutant GBM was “overcome resistance to molecular targeted therapy”.

As to `CCN(c1cc(-c2ccc(NC(=O)c3cc(C(C)C)c(O)cc3O)cc2)cc(C(=O)NCc2c(C)cc(C)[nH]c2=O)c1C)C1CCOCC1` [Compound 1, 4′-(2,4-dihydroxy-5-isopropylbenzamido)-N-((4,6-dimethyl-2-oxo-1,2-dihydropyridin-3-yl)methyl)-5-(ethyl(tetrahydro-2H-pyran-4-yl)amino)-4-methyl-[1,1′-biphenyl]-3-carboxamide], at HSP90a, the “HSP90 inhibitory potential in words” value was “devoid of HSP90 inhibitory potential”. The compound further came in with an IC50 against EZH2 (Core Histone) of 6.14 nM. In the data set on Pt3R cells, the “cell growth / viability inhibitory effect in words” value is “unable to exert cell growth inhibitory effects” and the IC50 is > 79800 nM.

As usually defined, the IC50 is the concentration needed to halve the response being measured.
